Earlier results as cited in patent US20200224165A1, “METHODS AND COMPOSITIONS FOR REJUVENATION” (priority 2016, published 2020).

Settings: without irradiation and chemotherapy

c1cc(CN2CCCNCCNCCCNCC2)ccc1CN1CCCNCCNCCCNCC1 [AMD3100]
effectiveness as conditioning for HSCT: not to be sufficiently effective
